Experimental data as given in US20240366565A1, “Use of Verteporfin to Modulate Wound Healing After an Ocular Surgical Procedure or Ocular Injury” (The Board of Trustees of the Leland Stanford Junior …, priority 2021, published 2024).

Tests used:
[1] = system: α-smooth muscle actin (α-SMA, ACTA-2) expression in hMSCs; experiment: qPCR of α-smooth muscle actin expression in TGFB-1 treated hMSCs; format: cell-based, human
Procedure: FIG. 1. Verteporfin reduces expression of α-smooth muscle actin in hMSCs. Human mesenchymal stem cells (hMSCs) were plated in culture. The next day, the following treatments were added in duplicate: 1 μg/mL Verteporfin, 10 μg/mL Verteporfin, 10 ng/ml transforming growth factor beta-1 (TGFB-1), 1 μg/mL Verteporfin+10 ng/mL TGFB-1, 10 μg/mL Verteporfin+10 ng/ml TGFB-1, Dimethyl sulfoxide (DMSO), and cells without treatment. After 24 hours, the medium was removed, the wells were washed with PBS and then the RNA of the cells were extracted using Trizol and a Quiagen kit. Quantitative polymerase chain reaction (qPCR) was performed. TGFB-1 activation leads to the differentiation of mesenchymal stem cells into myofibroblasts, inducing expression of α-smooth muscle actin (α-SMA) and the extracellular matrix proteins such as collagen which may lead to scarring.
Human mesenchymal stem cells (hMSCs) were plated in culture. The next day, the following treatments were added in duplicate: 1 μg/mL Verteporfin, 10 μg/mL Verteporfin, 10 ng/ml transforming growth factor beta-1 (TGFB-1), 1 μg/mL Verteporfin+10 ng/ml TGFB-1, 10 μg/mL Verteporfin+10 ng/ml TGFB-1, Dimethyl sulfoxide (DMSO), and cells without treatment. […] Quantitative polymerase chain reaction (qPCR) was performed.

[2] = system: bleb survival after glaucoma filtration surgery; experiment: Rabbit model of glaucoma filtration surgery; format: in vivo, New Zealand White rabbits; conditions: subconjunctival injection into the bleb after surgery, various concentrations, versus BSS control eye
Procedure: FIGS. 5A-5B. Efficacy of verteporfin in reducing scarring and increasing bleb survival. The efficacy of verteporfin in reducing scarring and increasing bleb survival was evaluated in a rabbit model of glaucoma filtration surgery. Glaucoma filtration surgery was performed in both eyes of New Zealand White rabbits. In one eye, various concentrations of verteporfin or Mitomycin C was injected subconjunctivally into the bleb after surgery. In the contralateral eye, BSS was injected after surgery as a control. Bleb appearance and survival were evaluated postoperatively at least twice a week. Bleb survival was the primary endpoint. […] There were no post-surgical complications in all groups, including corneal edema, bleb leak, anterior chamber inflammation, iris involvement, cataract or infection (FIG. 5B).
The efficacy of verteporfin in reducing scarring and increasing bleb survival was evaluated in a rabbit model of glaucoma filtration surgery. Glaucoma filtration surgery was performed in both eyes of New Zealand White rabbits. In one eye, various concentrations of verteporfin or Mitomycin C was injected subconjunctivally into the bleb after surgery. In the contralateral eye, BSS was injected after surgery as a control. Bleb appearance and survival were evaluated postoperatively at least twice a week. Bleb survival was the primary endpoint.

[3] = system: hMSCs; experiment: Live/dead cytotoxicity test in hMSCs; format: cell-based, human; conditions: 1 μg/mL and 10 μg/mL, 24 hours
Procedure: FIG. 4. Verteporfin is not cytotoxic to hMSCs. The hMSCs were treated with verteporfin at concentrations of 1 μg/mL and 10 μg/mL for 24 hours. Cells were treated with 10% DMSO for 40 minutes. The next day, the live/dead solution was added to the cells.
The hMSCs were treated with verteporfin at concentrations of 1 μg/mL and 10 μg/mL for 24 hours. Cells were treated with 10% DMSO for 40 minutes. The next day, the live/dead solution was added to the cells.

[4] = system: skin wounds; conditions: cited from earlier work
[5] = system: corneal scarring after anterior lamellar keratectomy; experiment: Rat model of corneal injury (anterior lamellar keratectomy); format: in vivo; conditions: ALK cut depth around 50%, 10 μg/mL in Provisc gel subconjunctivally on Day 0, read at day 3, versus untreated eyes
Procedure: FIG. 6. Efficacy of verteporfin in reducing corneal scarring. Anterior lamellar keratectomy (ALK) with a cut depth of around 50% was performed in a rat model of corneal injury. 10 μg/mL verteporfin (in Provisc gel) was subconjunctivally injected after ALK on Day 0.
Anterior lamellar keratectomy (ALK) with a cut depth of around 50% was performed in a rat model of corneal injury. 10 μg/mL verteporfin (in Provisc gel) was subconjunctivally injected after ALK on Day 0.

[6] = system: alpha smooth muscle actin (ASMA) in hMSCs; experiment: Immunostaining of alpha smooth muscle actin in hMSCs; format: cell-based, human; conditions: 10 ng/ml TGFB-1 with or without verteporfin, 24 hours
Procedure: FIG. 2. Results of immunostaining alpha smooth muscle actin in hMSCs. The hMSCs, were treated with 10 ng/ml TGFB-1 with or without verteporfin and DMSO for 24 hours. The next day, the cells were fixed and stained for alpha smooth muscle actin (ASMA).
The hMSCs, treated with 10 ng/ml TGFB-1 with or without verteporfin and DMSO for 24 hours, were fixed and stained for alpha smooth muscle actin (ASMA) the next day.

[7] = system: ki67 (Mki67) expression in hMSCs; experiment: qPCR of ki67 expression in hMSCs; format: cell-based, human; conditions: Verteporfin 1 μg/mL and 10 μg/mL, 24 hours
Procedure: FIG. 3. […] The hMSCs were cultured on plates. The next day, the treatments were added in duplicate: Verteporfin 1 μg/mL, Verteporfin 10 μg/mL, DMSO, and cells without treatment. After 24 hours, the medium was removed, the wells were washed with PBS and then the RNA of the cells were extracted using Trizol and Quiagen kit. qPCR was performed.
The hMSCs were cultured on plates. The next day, the treatments were added in duplicate: Verteporfin 1 μg/mL, Verteporfin 10 μg/mL, DMSO, and cells without treatment. After 24 hours, the medium was removed, the wells were washed with PBS and then the RNA of the cells were extracted using Trizol and Quiagen kit. qPCR was performed.

| Substance | expression of alpha-SMA (ACTA-2) (qPCR) ([1]; 10 ng/ml TGFB-1 alone, after 24 hours) | bleb survival [2] | cytotoxicity (live/dead) [3] | expression of alpha-SMA (qPCR) ([1]; 10 ng/ml TGFB-1 + 1 or 10 μg/mL Verteporfin, 24 hours) | scar formation in skin wounds ([4]; mice, injection into skin wounds) | side effects on dosing in the skin ([4]; previous animal studies) | corneal scarring [5] | expression of ASMA (immunostaining) [6] | expression of ki67 (Mki67), marker of cell proliferation (qPCR) [7] |
| --- | --- | --- | --- | --- | --- | --- | --- | --- | --- |
| transforming growth factor beta-1 [TGFB-1] | statistically increased the expression of alpha-SMA | – | – | – | – | – | – | – | – |
| Verteporfin | – | trend towards increased survival | not cytotoxic | statistically reduced the expression of alpha-SMA in a dose dependent manner | prevented scar formation | minimal side effects | reduced corneal scarring | reduces the expression of ASMA | did not increase the expression of ki67 |
